Tested on: P. aeruginosa, PAM1723, overexpressing the MexAB-OprM efflux pump
Assay type: cell-based, Pseudomonas aeruginosa
Conditions: lowest EPI concentration giving antibacterial activity with levofloxacin at 1/8 of its MIC, MHB, 20 h at 35° C.
Method: All EPI compounds were readily soluble in water and stock solutions were prepared at a final concentration of 10 mg/ml. Stock solutions were further diluted, according to the needs of the particular assay, in Mueller Hinton Broth (MHB). Stock solution was stored at […].
The checkerboard assay was performed in microtiter plates. […] EPIs were diluted in the y-axis, each row containing a single concentration of an EPI. […] The assay was performed in MHB with a final bacterial inoculum of 5 times 10^5 CFU/ml (from an early-log phase culture). Microtiter plates were incubated during 20 h at 35° C. and were read using a microtiter plate reader (Molecular Devices) at 650 nm as well as visual observation using a microtiter plate-reading mirror.

`NCCN(CCN)C(=O)CC[C@H](N)C(=O)N[C@H](CCc1ccc(C(F)(F)F)cc1)C(=O)NCC1OB(O)c2ccccc21` (stereo in doubt) [Compound 36, (S)-2-amino-N5,N5-bis(2-aminoethyl)-N1-((R)-1-(((R)-1-hydroxy-1,3-dihydrobenzo[c][1,2]oxaborol-3-yl)methylamino)-1-oxo-4-(4-(trifluoromethyl)phenyl)butan-2-yl)pentanediamide] was tested. Which “MPC8 (Minimum Potentiating Concentration)” value (“MPC8” below) did it give?
The value was “B (B = MPC8 of 2.5 μg/ml to less than 10 μg/mL.)”.

Which “MPC8” value does the source give for `NCCN(CCN)C(=O)CC[C@H](N)C(=O)N[C@H](Cc1ccc(C(F)(F)F)cc1)C(=O)Nc1ccc2c(c1)B(O)OC2` [Compound 1, (S)-2-amino-N5,N5-bis(2-aminoethyl)-N1-((R)-1-(1-hydroxy-1,3-dihydrobenzo[c][1,2]oxaborol-6-ylamino)-1-oxo-3-(4-(trifluoromethyl)phenyl)propan-2-yl)pentanediamide] here?
The value was “C (C = MPC8 of 10 μg/mL or greater.)”.

How did the “MPC8” value turn out when `NCCN(CCN)C(=O)CC[C@H](N)C(=O)N[C@H](Cc1ccc(C(F)(F)F)cc1)C(=O)NCc1ccc(B(O)O)cc1` [Compound 3, 4-(((R)-2-((S)-2-amino-5-(bis(2-aminoethyl)amino)-5-oxopentanamido)-3-(4-(trifluoromethyl)phenyl)propanamido)methyl)phenylboronic acid] was run?
Its value is “C (C = MPC8 of 10 μg/mL or greater.)”.

With `NCCN(CCN)C(=O)C[C@H](N)C(=O)N[C@H](C(=O)Nc1ccc2c(c1)B(O)OC2)[C@H](O)c1ccc(C(F)(F)F)cc1` [Compound 4, (S)-2-amino-N4,N4-bis(2-aminoethyl)-N1-((1R,2S)-1-hydroxy-3-(1-hydroxy-1,3-dihydrobenzo[c][1,2]oxaborol-6-ylamino)-3-oxo-1-(4-(trifluoromethyl)phenyl)propan-2-yl)succinamide] as the compound, how does the “MPC8” value read?
Its value is “C (C = MPC8 of 10 μg/mL or greater.)”.

With `NCCN(CCN)C(=O)C[C@H](N)C(=O)N[C@H](Cc1ccc(C(F)(F)F)cc1)C(=O)Nc1ccc2c(c1)B(O)OC2` [Compound 5, (S)-2-amino-N4,N4-bis(2-aminoethyl)-N1-((R)-1-(1-hydroxy-1,3-dihydrobenzo[c][1,2]oxaborol-6-ylamino)-1-oxo-3-(4-(trifluoromethyl)phenyl)propan-2-yl)succinamide] as the compound, how does the “MPC8” value read?
Its value is “C (C = MPC8 of 10 μg/mL or greater.)”.

`NCCN(CCN)C(=O)C[C@H](N)C(=O)N[C@H](CCc1ccc(C(F)(F)F)cc1)C(=O)Nc1ccc2c(c1)B(O)OC2` [Compound 7, (S)-2-amino-N4,N4-bis(2-aminoethyl)-N1-((R)-1-(1-hydroxy-1,3-dihydrobenzo[c][1,2]oxaborol-6-ylamino)-1-oxo-4-(4-(trifluoromethyl)phenyl)butan-2-yl)succinamide] was tested. Which “MPC8” value did it give?
Its value is “B (B = MPC8 of 2.5 μg/ml to less than 10 μg/mL.)”.

How did the “MPC8” value turn out when `NCCN(CCN)C(=O)CC[C@H](N)C(=O)N[C@H](Cc1ccc(C(F)(F)F)cc1)C(=O)Nc1ccccc1B(O)O` [Compound 8, 2-((R)-2-((S)-2-amino-5-(bis(2-aminoethyl)amino)-5-oxopentanamido)-3-(4-(trifluoromethyl)phenyl)propanamido)phenylboronic acid] was run?
Its value is “C (C = MPC8 of 10 μg/mL or greater.)”.

For `NCCN(CCN)C(=O)CC[C@H](N)C(=O)N[C@@H](Cc1ccc(C(F)(F)F)cc1)C(=O)Nc1ccccc1B(O)O` [Compound 9, 2-((S)-2-((S)-2-amino-5-(bis(2-aminoethyl)amino)-5-oxopentanamido)-3-(4-(trifluoromethyl)phenyl)propanamido)phenylboronic acid], which “MPC8” value is on record?
Its value is “C (C = MPC8 of 10 μg/mL or greater.)”.

With `NCCN(CCN)C(=O)C[C@H](N)C(=O)N[C@H](Cc1ccc(C(F)(F)F)cc1)C(=O)Nc1cc(B(O)O)cc(C(F)(F)F)c1` [Compound 10, 3-((R)-2-((S)-2-amino-4-(bis(2-aminoethyl)amino)-4-oxobutanamido)-3-(4-(trifluoromethyl)phenyl)propanamido)-5-(trifluoromethyl)phenylboronic acid] as the compound, how does the “MPC8” value read?
The value was “B (B = MPC8 of 2.5 μg/ml to less than 10 μg/mL.)”.

`NCCN(CCN)C(=O)C[C@H](N)C(=O)N[C@@H](Cc1ccc(C(F)(F)F)cc1)C(=O)Nc1cc(B(O)O)cc(C(F)(F)F)c1` [Compound 11, 3-((S)-2-((S)-2-amino-4-(bis(2-aminoethyl)amino)-4-oxobutanamido)-3-(4-(trifluoromethyl)phenyl)propanamido)-5-(trifluoromethyl)phenylboronic acid] was tested. Which “MPC8” value did it give?
The value was “B (B = MPC8 of 2.5 μg/ml to less than 10 μg/mL.)”.

How did the “MPC8” value turn out when `NCCN(CCN)C(=O)CC[C@H](N)C(=O)N[C@H](CCC1CCCCC1)C(=O)Nc1cc(B(O)O)cc(C(F)(F)F)c1` [Compound 12, 3-((R)-2-((S)-2-amino-5-(bis(2-aminoethyl)amino)-5-oxopentanamido)-4-cyclohexylbutanamido)-5-(trifluoromethyl)phenylboronic acid] was run?
The value was “A (A = MPC8 of less than 2.5 μg/mL.)”.

Which “MPC8” value does the source give for `NCCN(CCN)C(=O)CC[C@H](N)C(=O)N[C@H](CCc1ccc(C(F)(F)F)cc1)C(=O)Nc1cc(B(O)O)cc(C(F)(F)F)c1` [Compound 13, 3-((R)-2-((S)-2-amino-5-(bis(2-aminoethyl)amino)-5-oxopentanamido)-4-(4-(trifluoromethyl)phenyl)butanamido)-5-(trifluoromethyl)phenylboronic acid] here?
The value was “B (B = MPC8 of 2.5 μg/ml to less than 10 μg/mL.)”.

How did the “MPC8” value turn out when `NCCN(CCN)C(=O)CC[C@H](N)C(=O)N[C@H](Cc1ccc(C(F)(F)F)cc1)C(=O)Nc1cc(B(O)O)cc(C(F)(F)F)c1` [Compound 15, 3-((R)-2-((S)-2-amino-5-(bis(2-aminoethyl)amino)-5-oxopentanamido)-3-(4-(trifluoromethyl)phenyl)propanamido)-5-(trifluoromethyl)phenylboronic acid] was run?
Its value is “B (B = MPC8 of 2.5 μg/ml to less than 10 μg/mL.)”.

Which “MPC8” value does the source give for `NCCN(CCN)C(=O)CC[C@H](N)C(=O)N[C@H](Cc1ccc(C(F)(F)F)cc1)C(=O)Nc1ccc(C(F)(F)F)c(B(O)O)c1` [Compound 16, 5-((R)-2-((S)-2-amino-5-(bis(2-aminoethyl)amino)-5-oxopentanamido)-3-(4-(trifluoromethyl)phenyl)propanamido)-2-(trifluoromethyl)phenylboronic acid] here?
The value was “C (C = MPC8 of 10 μg/mL or greater.)”.

With `NCCN(CCN)C(=O)CC[C@H](N)C(=O)N[C@H](Cc1ccc(C(F)(F)F)cc1)C(=O)Nc1ccc(B(O)O)c(C(F)(F)F)c1` [Compound 17, 4-((R)-2-((S)-2-amino-5-(bis(2-aminoethyl)amino)-5-oxopentanamido)-3-(4-(trifluoromethyl)phenyl)propanamido)-2-(trifluoromethyl)phenylboronic acid] as the compound, how does the “MPC8” value read?
The value was “C (C = MPC8 of 10 μg/mL or greater.)”.

For `N[C@@H]1C[C@H](N)CN(C(=O)CC[C@H](N)C(=O)N[C@H](Cc2ccc(C(F)(F)F)cc2)C(=O)Nc2cc(B(O)O)cc(C(F)(F)F)c2)C1` [Compound 18, 3-((R)-2-((S)-2-amino-5-((3R,5S)-3,5-diaminopiperidin-1-yl)-5-oxopentanamido)-3-(4-(trifluoromethyl)phenyl)propanamido)-5-(trifluoromethyl)phenylboronic acid], which “MPC8” value is on record?
Its value is “B (B = MPC8 of 2.5 μg/ml to less than 10 μg/mL.)”.

With `N[C@@H]1CC(NC(=O)CC[C@H](N)C(=O)N[C@H](Cc2ccc(C(F)(F)F)cc2)C(=O)Nc2cc(B(O)O)cc(C(F)(F)F)c2)C[C@H](N)C1` (stereo partly drawn) [Compound 19, 3-((R)-2-((S)-2-amino-5-((1R,3R,5S)-3,5-diaminocyclohexylamino)-5-oxopentanamido)-3-(4-(trifluoromethyl)phenyl)propanamido)-5-(trifluoromethyl)phenylboronic acid] as the compound, how does the “MPC8” value read?
Its value is “B (B = MPC8 of 2.5 μg/ml to less than 10 μg/mL.)”.

Which “MPC8” value does the source give for `NCC(O)(CN)CNC(=O)CC[C@H](N)C(=O)N[C@H](CCc1ccc(C(F)(F)F)cc1)C(=O)Nc1cc(B(O)O)cc(C(F)(F)F)c1` [Compound 21, 3-((R)-2-((S)-2-amino-5-(3-amino-2-(aminomethyl)-2-hydroxypropylamino)-5-oxopentanamido)-4-(4-(trifluoromethyl)phenyl)butanamido)-5-(trifluoromethyl)phenylboronic acid] here?
Its value is “B (B = MPC8 of 2.5 μg/ml to less than 10 μg/mL.)”.

With `NCC(O)(CN)CNC(=O)CC[C@H](N)C(=O)N[C@H](CCc1ccc(C(F)(F)F)cc1)C(=O)Nc1cccc(B(O)O)c1` [Compound 22, 3-((R)-2-((S)-2-amino-5-(3-amino-2-(aminomethyl)-2-hydroxypropylamino)-5-oxopentanamido)-4-(4-(trifluoromethyl)phenyl)butanamido) phenylboronic acid] as the compound, how does the “MPC8” value read?
The value was “B (B = MPC8 of 2.5 μg/ml to less than 10 μg/mL.)”.

Which “MPC8” value does the source give for `N[C@@H]1C[C@H](N)C[C@H](NC(=O)CC[C@H](N)C(=O)N[C@H](CCc2ccc(C(F)(F)F)cc2)C(=O)Nc2cccc(B(O)O)c2)C1` [Compound 23, 3-((R)-2-((S)-2-amino-5-((1S,3R,5S)-3,5-diaminocyclohexylamino)-5-oxopentanamido)-4-(4-(trifluoromethyl)phenyl)butanamido)phenylboronic acid] here?
The value was “B (B = MPC8 of 2.5 μg/ml to less than 10 μg/mL.)”.

Which “MPC8” value does the source give for `N[C@@H]1C[C@H](N)CN(C(=O)CC[C@H](N)C(=O)N[C@H](CCc2ccc(C(F)(F)F)cc2)C(=O)Nc2cccc(B(O)O)c2)C1` [Compound 24, 3-((R)-2-((S)-2-amino-5-((3R,5S)-3,5-diaminopiperidin-1-yl)-5-oxopentanamido)-4-(4-(trifluoromethyl)phenyl)butanamido)phenylboronic acid] here?
Its value is “B (B = MPC8 of 2.5 μg/ml to less than 10 μg/mL.)”.

From patent publication US8933018B2, “Boron containing polybasic bacterial efflux pump inhibitors and therapeutic uses thereof” (priority 2011, dated 2015)
